How the values were obtained:
[1] = system: Streptococcus pneumonia; conditions: during its logarithmic growth phase; cited from earlier work
[2] = assay type: physicochemical
Procedure: A composition is prepared for a dilute bathing formulation of xylitol for nasal delivery. The concentration of xylitol in the solution may be 10%-60% by weight/volume. This corresponds to 10-60 grams of xylitol per 100 ml of solution. xylitol is soluble in solution up to 64.2 grams per 100 ml of solution.

- soluble in solution [2]: up to 64.2 grams per 100 ml of solution
Compound: OC[C@@H](O)[C@H](O)[C@@H](O)CO [xylitol]
- growth of Streptococcus pneumonia in vitro [1]: inhibits the growth

Source: US6599883B1, “Nasal delivery of xylitol” (Nastech Pharmaceutical Company, Inc., priority 1998, dated 2003)
